“And” between values parts separate entries of the source, which are not always exact repeats. Equal values may be shown once. Read-outs that look alike come from different tables or passages of the source.
Columns and labels:
[1] = molecular target: human MATE2K (hMATE2K) (Homo sapiens, UniProt Q86VL8); experiment: Uptake of the extended cocktail by HEK293 cells overexpressing hMATE2K; format: in vitro ADME; settings: Fig. 6, uptake 1 minute after NH4Cl preincubation
[2] = molecular target: T1, human MATE1 (hMATE1) (Homo sapiens, UniProt Q96FL8); experiment: Uptake of the extended cocktail by HEK293 cells overexpressing hMATE1; format: in vitro ADME; settings: Fig. 6, uptake 1 minute after NH4Cl preincubation
T1 sequence (Q96FL8 1-570): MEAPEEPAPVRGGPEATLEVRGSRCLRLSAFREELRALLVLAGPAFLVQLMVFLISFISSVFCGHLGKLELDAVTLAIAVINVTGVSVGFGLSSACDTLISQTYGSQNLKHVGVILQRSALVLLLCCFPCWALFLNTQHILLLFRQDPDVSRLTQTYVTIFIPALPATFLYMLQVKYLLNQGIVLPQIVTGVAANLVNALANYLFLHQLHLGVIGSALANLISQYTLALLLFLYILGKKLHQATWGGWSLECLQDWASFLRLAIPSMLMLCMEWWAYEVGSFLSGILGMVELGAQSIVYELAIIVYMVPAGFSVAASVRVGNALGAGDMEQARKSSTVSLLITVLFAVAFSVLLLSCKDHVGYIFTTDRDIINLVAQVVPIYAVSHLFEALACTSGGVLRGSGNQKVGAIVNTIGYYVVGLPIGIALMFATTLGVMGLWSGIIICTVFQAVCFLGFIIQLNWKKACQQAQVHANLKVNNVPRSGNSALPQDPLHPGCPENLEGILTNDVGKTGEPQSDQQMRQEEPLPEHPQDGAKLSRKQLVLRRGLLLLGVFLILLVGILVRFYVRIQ

[3] = molecular target: T2, human OCT1 (hOCT1) (Homo sapiens, UniProt O15245); experiment: Transport kinetics (KM, vmax) of OCT1-mediated uptake, HEK293 cells overexpressing human OCT1; format: in vitro ADME; parameters: expressed in transfected cells; empty vector control pcDNA5; settings: mean ± SD; for vmax: hOCT1; for Km at 2 min: human, HEK293 cells stably overexpressing human OCT1, pH 7.4, hOCT1
T2 sequence (O15245 1-554): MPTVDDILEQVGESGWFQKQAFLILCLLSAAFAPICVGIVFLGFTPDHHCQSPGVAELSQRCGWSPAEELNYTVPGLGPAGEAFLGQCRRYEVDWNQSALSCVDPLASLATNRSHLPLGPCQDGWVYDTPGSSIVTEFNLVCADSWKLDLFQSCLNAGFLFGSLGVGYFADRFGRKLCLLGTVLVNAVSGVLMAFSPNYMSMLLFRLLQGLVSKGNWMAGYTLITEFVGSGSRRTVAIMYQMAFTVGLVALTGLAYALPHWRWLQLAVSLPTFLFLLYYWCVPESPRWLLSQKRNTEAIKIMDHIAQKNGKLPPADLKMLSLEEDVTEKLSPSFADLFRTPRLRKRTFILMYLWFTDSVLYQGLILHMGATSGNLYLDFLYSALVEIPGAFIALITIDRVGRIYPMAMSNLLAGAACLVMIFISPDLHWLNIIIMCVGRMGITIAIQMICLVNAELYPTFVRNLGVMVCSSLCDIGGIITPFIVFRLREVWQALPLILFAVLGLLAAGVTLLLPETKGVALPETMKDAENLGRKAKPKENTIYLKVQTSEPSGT
Description: To validate the cocktail, we analyzed whether the combination of all substrates in a cocktail affected their individual transport kinetics in terms of KM and vmax. […] To measure the transport kinetics for a single substrate in the cocktail, we increased the concentration of 1 substrate while keeping the concentrations of the other substrates in the cocktail constant. The resulting KM and vmax values were compared with those obtained when each substrate was tested alone (Fig. 2; Supplemental Table 5).

[4] = Pharmacokinetic parameters used for estimating the potential for DDIs; format: in vivo, human; settings: human; for k el: po
Description: Ka was calculated manually based on available pharmacokinetic parameters.

[5] = molecular target: T2, human OCT1 (hOCT1); parameters: expressed in transfected cells; empty vector control pcDNA5; method as in ref column References of Table 2 (Tzvetkov et al, 2018; Morse et al, 2020; Jensen et al, 2020; Meyer et al, 2019, 2022; Wittern et al, 2024 and own unpublished data; Elsby et al, 2017); settings: literature values; References of Table 2 (Tzvetkov et al, 2018; Morse et al, 2020; Jensen et al, 2020; Meyer et al, 2019, 2022; Wittern et al, 2024 and own unpublished data; Elsby et al, 2017); cited from earlier work
[6] = molecular target: T3, mouse OCT1 (Mus musculus, UniProt O08966); experiment: Uptake of the cocktail by HEK293 cells overexpressing mouse Oct1
T3 sequence (O08966 1-556): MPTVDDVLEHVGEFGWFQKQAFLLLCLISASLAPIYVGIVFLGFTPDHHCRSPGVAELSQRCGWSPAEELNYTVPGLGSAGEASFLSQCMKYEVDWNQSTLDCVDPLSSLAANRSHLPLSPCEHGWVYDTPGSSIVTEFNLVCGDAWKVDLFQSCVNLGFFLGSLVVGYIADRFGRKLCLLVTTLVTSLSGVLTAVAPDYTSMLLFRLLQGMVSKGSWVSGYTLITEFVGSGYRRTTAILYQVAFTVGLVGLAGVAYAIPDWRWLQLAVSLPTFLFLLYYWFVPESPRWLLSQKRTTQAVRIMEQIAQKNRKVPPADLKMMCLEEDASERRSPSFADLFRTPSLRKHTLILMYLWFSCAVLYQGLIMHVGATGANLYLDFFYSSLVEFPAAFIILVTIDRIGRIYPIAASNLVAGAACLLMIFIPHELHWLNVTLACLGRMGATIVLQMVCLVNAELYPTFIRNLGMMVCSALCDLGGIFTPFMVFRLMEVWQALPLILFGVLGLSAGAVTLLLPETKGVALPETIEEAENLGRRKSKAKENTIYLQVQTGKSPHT
Description: (§1) Significance was calculated using Mann–Whitney U test. n = 5–8 independent experiments.

[7] = cited from earlier work; for cmax = Imax: dose and route as in Supplemental Table 4, ref Hardman, 2018, fenoterol Tzvetkov et al; for cmax = Imax / fraction unbound: ipratropium Zhang et al, 2023; for fraction unbound: fraction unbound in plasma, ref Hardman, 2018, Lombardo et al (2018), fenoterol Tzvetkov et al; for tmax: p.o., ref Hardman, 2018
[8] = molecular target: T4, OCT1 (Homo sapiens, UniProt O15245); experiment: DDI risk R calculated from IC50 at human OCT1; settings: R=1+fup×Iin,max/IC50, cutoff R ≥ 1.1
T4 sequence (O15245 1-554): T2 sequence (O15245 1-554)
Description: (§2) Ka was calculated manually based on available pharmacokinetic parameters. Qh was set to 97 L/h and Fa was assumed as 1.

[9] = molecular target: T4, OCT1
Description: as §2

[10] = test system: mOct1; parameters: method as in ref column References of Table 2 (Morse et al, 2020; Jensen et al, 2020; Meyer et al, 2022); settings: literature values; References of Table 2 (Morse et al, 2020; Jensen et al, 2020; Meyer et al, 2022); cited from earlier work
[11] = molecular target: T4, OCT1; experiment: Uptake of the cocktail by HEK293 cells overexpressing human OCT1; settings: cocktail
Description: as §1

[12] = molecular target: T2, human OCT1 (hOCT1)
Description: (§3) The kinetic transport parameters KM and vmax as well as the half-maximal inhibitory concentration (IC50) were calculated using GraphPad Prism version 8.0.2 (GraphPad Software, Inc). KM and vmax were calculated using nonlinear regression to the Michaelis-Menten equation.

[13] = test system: OCT1; settings: ref Tzvetkov et al, 2018 (fenoterol); Matthaei et al, 2016 (sumatriptan); cited from earlier work
[14] = molecular target: T2, human OCT1 (hOCT1); experiment: Inhibition of OCT1-mediated uptake of the cocktail substrates in HEK293 cells overexpressing human OCT1; settings: human OCT1, mean ± SD
Description: as §3

[15] = fold change to the negative control, n = 12

Sequence of human MATE2K (hMATE2K) (Q86VL8 1-566 isoform Q86VL8-3): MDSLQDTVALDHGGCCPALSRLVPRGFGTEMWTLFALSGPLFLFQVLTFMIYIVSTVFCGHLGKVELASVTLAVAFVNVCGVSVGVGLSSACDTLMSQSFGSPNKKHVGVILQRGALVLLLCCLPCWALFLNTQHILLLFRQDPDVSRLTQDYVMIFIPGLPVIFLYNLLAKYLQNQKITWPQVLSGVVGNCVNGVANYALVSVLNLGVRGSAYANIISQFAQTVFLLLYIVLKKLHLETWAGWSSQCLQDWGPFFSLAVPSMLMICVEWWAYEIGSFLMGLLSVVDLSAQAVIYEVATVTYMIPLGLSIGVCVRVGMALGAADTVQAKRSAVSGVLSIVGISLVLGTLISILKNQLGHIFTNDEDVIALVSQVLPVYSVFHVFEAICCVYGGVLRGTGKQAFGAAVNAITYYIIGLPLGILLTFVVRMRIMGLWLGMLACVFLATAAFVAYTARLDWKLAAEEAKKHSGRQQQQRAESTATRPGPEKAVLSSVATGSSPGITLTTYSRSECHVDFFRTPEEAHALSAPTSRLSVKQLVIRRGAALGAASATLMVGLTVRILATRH

| SMILES | transport by MATE2K [1] | transport by MATE1 [2] | I max, portal, u ([4]; in vivo) [µM] | Imax, portal ([4]; in vivo) [ng/mL] | Km [5] [µM] | cmax = Imax [7] [ng/mL] | fraction unbound [7] | tmax [7] [h] | DDI risk R, victim drug fenoterol [8] | DDI risk R, victim drug ipratropium [8] | DDI risk R, victim drug methylnaltrexone [8] | DDI risk R, victim drug salbutamol [8] | DDI risk R, victim drug zolmitriptan [8] | DDI risk R, victim drug trospium [9] | Km [10] [µM] | further results |
| --- | --- | --- | --- | --- | --- | --- | --- | --- | --- | --- | --- | --- | --- | --- | --- | --- |
| CN(C)C(=N)N=C(N)N [Metformin, metformin] | by far the strongest transport activity | by far the strongest transport activity | 39.48 | 5100 | 3030 | 1600 | 1 | 1.90 | 1.00 | 1.01 | 1.01 | 1.00 | 1.00 | 1.00 | 491 | vmax ([3]; substrate tested alone): 6999 ± 2065 pmol x min^-1 x mg protein^-1; vmax ([3]; substrate tested in cocktail): 5251 ± 1311 pmol x min^-1 x mg protein^-1; Km at 2 min ([3]; substrate tested alone): 1380 ± 512 µM; Km at 2 min ([3]; substrate tested in cocktail): 2000 ± 338 µM; k el ([4]; in vivo): 0.000111 s⁻¹; uptake stronger in mouse than in human OCT1 ([6]; ratio mouse/human): 5.1 fold; DDI risk R, victim drug sumatriptan [8]: 1.01 |
| CNS(=O)(=O)Cc1ccc2[nH]cc(CCN(C)C)c2c1 [Sumatriptan, sumatriptan] | by far the strongest transport activity | by far the strongest transport activity | 1.91 | 714.8 | 55.8 | 54 | 0.79 | 1.50 | 1.00 | 1.01 | 1.00 | 1.00 | 1.00 | 1.01 | 65.7 | human OCT1 uptake [fold change to pcDNA5] [11, 15]: 15.3 fold change to pcDNA5; uptake stronger in human than in mouse OCT1 ([11]; ratio human/mouse): 2 fold; IC50 [12]: 604 µM and 628 µM; ka ([4]; in vivo): 0.64 h⁻¹; k el ([4]; plasma, read-out: ke (converted)): 0.000192 s⁻¹; increase in systemic exposure in individuals homozygous for OCT1 loss-of-function genetic variants [13]: 2 fold; mouse Oct1 uptake [fold change to pcDNA5] [6, 15]: 7.8 fold change to pcDNA5; IC50 ([14]; IC50 for inhibition of fenoterol uptake, substrate (victim) fenoterol 0.5 μM in cocktail): 482 ± 42.9 µM; IC50 ([14]; IC50 for inhibition of ipratropium uptake, substrate (victim) ipratropium 0.5 μM in cocktail): 207 µM; IC50 ([14]; IC50 for inhibition of methylnaltrexone uptake, substrate (victim) methylnaltrexone 1 μM in cocktail): 448 ± 40.9 µM; IC50 ([14]; IC50 for inhibition of trospium uptake, substrate (victim) trospium 0.1 μM in cocktail): 270 ± 42.6 µM; IC50 ([14]; IC50 for inhibition of zolmitriptan uptake, substrate (victim) zolmitriptan 0.5 μM in cocktail): 506 ± 36.2 µM; t1/2 ([7]; ref Hardman, 2018, fenoterol Tzvetkov et al): 1.00 h; DDI risk R, victim drug metformin [8]: 1.00 |
